Assay results from patent publication US20260132165A1, “MODIFIED NUCLEOSIDE ANALOGUE AND USE THEREOF, AND NUCLEOSIDE ANALOGUE-CONTAINING DOUBLE-STRANDED OLIGONUCLEOTIDE AND USE THEREOF” (RIGERNA THERAPEUTICS (BEIJING) CO., LTD., priority 2023, published 2026).

Key:
target gene SOD1 [1] = assay: Test Example 4: lipid conjugated siRNA sequences with different carbon chain lengths, SOD1 in mouse brain, lateral ventricle administration; format: in vivo, C57BL/6j mice; parameters: Right hemisphere Mean value of inhibition rate / Left hemisphere Mean value of inhibition rate: unit not given here; conditions: lateral ventricle, 150 μg per mouse, D5; for Left hemisphere Mean value of inhibition rate: left hemisphere (non-administration side); for Right hemisphere Mean value of inhibition rate: right hemisphere (administration side)
Protocol: 6-8 Week-old C57BL/6j mice were randomly grouped by body weight. Mice in each group were administered with siRNA by lateral ventricle administration, with an administration dose per mouse depending on a specific test. Taking Bregma in mouse brain as point 0 (origin), coordinates of right ventricle were found using the cerebral stereotaxic apparatus and position was marked on surface of skull (position of lateral ventricle was AP (anteroposterior, bregma anterior and posterior): −0.58 mm, ML (mediolateral, left and right of middle raphe): −1.2 mm, DV (dorsoventral, up and down cerebral dura mater plane): −2.2 mm). A dental electric drill was used to drill in the skull above a position of interest, and then medicament was injected into the lateral ventricle by a micro-dosing pump, wherein a total injection volume was 5 μL, and injection duration was 10 min. Needle was retained for 5 min after completion of injection, and then slowly withdrawn. Afterwards, needle hole was sealed with biomedical glue, and then head skin was adhered. After animals woke up, the animals were returned back to animal house and further fed. PBS control group was administered with the same volume of siRNA-free PBS solution. The day of administration was recorded as 0 day (D0), and the mice were sacrificed at observation point after the administration. Different parts of brain region were respectively taken and stored in the RNAlater.
(§1) RNA extraction: the above tissue samples were taken out from the RNAlater, and smashed for 60 s in Tissuelyser type II full-automatic tissue homogenizer, and total RNAs of various tissue samples were extracted using the full-automatic nucleic acid extraction instrument and the nucleic acid extraction kit from Zhejiang Hanwei Science and Technology Co. Ltd. according to methods described in instructions.
(§2) Reverse transcription reaction: 1 μg of the extracted total RNAs of the tissue samples were taken, and configured into 20 μL of reverse transcription system according to a method described in kit instructions by using a reverse transcription kit (Reverse Transcription System, A3500) from Promega Corporation and selecting Oligo (dT)15 reverse transcription primers, and the reverse transcription reaction was completed. After the reaction was ended, 80 μL of RNase-Free water was added into the reverse transcription system to provide cDNA solution for Real-time PCR detection.
(§3) Real-time PCR detection: 20 μL of Real-time PCR reaction system per PCR detection well was configured according to a method described in kit instructions using SYBR™ Select Master Mix (Catalog number: 4472908) reagent from ABI company. Each detection system contained 5 μL of cDNA template obtained from the above reverse transcription reaction, 10 μL of SYBR™ Select Master Mix, 0.5 μL of 10 μM upstream primers, 0.5 μL of 10 μM downstream primers, and 4 μL of RNase-Free H2O. The configured reaction system was subjected to Real-time PCR amplification on ABI StepOnePlus PCR instrument by a three-step method, wherein an amplification procedure was pre-denaturation at 95° C. for 10 min, then denaturation at 95° C. for 30 s, annealing at 60° C. for 30 s, and extension at 72° C. for 30 s; and processes of denaturation, annealing, and extension were repeated for 40 cycles. Gene expression differences were calculated by the ΔΔCt method after completion of the procedure.
In the real-time fluorescence quantitative PCR method, relative quantitative calculation of remaining expression level and inhibition rate of gene mRNA of interest in various test groups was performed by the ΔΔCt method, and the calculation method is as follows: […]

target gene SOD1 [2] = assay: Test Example 8: inhibitory activity on target gene SOD1 in adipose tissues in different parts of mice; format: in vivo, C57BL/6j mice; conditions: tail vein injection 5 mg/kg, D14; for Subcutaneous fat % Mean value of inhibition rate: abdominal subcutaneous fat
Protocol: as §1, §2, §3
In the real-time fluorescence quantitative PCR method, relative quantitative calculation of remaining expression level and inhibition rate of gene mRNA of interest in various test groups was performed by the ΔΔCt method, and the calculation method is as follows:
The present test example evaluated, by an evaluation method for inhibitory activity on a target gene in mice, the inhibitory activity of siRNA sequence RZ899090 with the sense strand with the NM073 conjugation at Position 4, siRNA sequence RZ899091 with the sense strand with the NM074 conjugation at Position 4, siRNA sequence RZ899078 with the sense strand with the NM202 conjugation at Position 6 and siRNA reference sequence RZ899093 with the sense strand with the Uhd conjugation at Position 4, siRNA reference sequence RZ899076 with the sense strand with the NM200 conjugation at Position 4 on the target gene SOD1 in adipose tissues of interest in mice.
6-8 Week-old C57BL/6j mice were randomly grouped by body weight, 5 per group, 6 groups in total. Mice in each group were dosed with the above siRNA conjugates by tail vein injection, with an administration dose of 5 mg/kg per mouse, and an administration volume of 150 μL. PBS control group was administered with the same volume of siRNA conjugate-free PBS solution. The day of administration was recorded as D0, and 5 mice in each group were sacrificed on D14 after administration. Paragonadal fat, abdominal subcutaneous fat, and brown fat on back were respectively taken. RNA extraction, reverse transcription, and real-time fluorescence quantitative detection were performed on various tissues according to the above method, and gene expression differences were calculated by the above ΔΔCt method.

Substance | Left hemisphere Mean value of inhibition rate (target gene SOD1 [1]) | Right hemisphere Mean value of inhibition rate (target gene SOD1 [1]) | Subcutaneous fat % Mean value of inhibition rate (target gene SOD1 [2]) [%] | Brown fat on back % Mean value of inhibition rate (target gene SOD1 [2]) [%] | Paragonadal fat % Mean value of inhibition rate (target gene SOD1 [2]) [%]
RZ899076: siRNA reference sequence with the sense strand with the NM200 (C22) conjugation at Position 4; SEQ ID NO: 18 / 24 (sense UUUNAAUCCUCACUCUAAA; antisense UUUAGAGUGAGGAUUAAAAUG; NM200 (C22) conjugate at sense position 4; modified_base 1..2 OTHER; 2'-methoxy and 5'-thiophosphate modified nucleotides; modified_base 3 OTHER; 2'-methoxy modified nucleotide; modified_base 4 OTHER; n is the synthetic nucleotide analog NM200 as described in the disclosure.; modified_base 5..6 OTHER; 2'-methoxy modified nucleotides; modified_base 7..10 OTHER; 2'-fluoro modified nucleotides; modified_base 11..19 OTHER; 2'-methoxy modified ; modified_base 1 OTHER; 2'-methoxy and 5'-thiovinylphosphonate modified nucleotide; modified_base 2 OTHER; 2'-fluoro and 5'-thiophosphate modified …) [reference compound] | 65.25 | 79.02 | 76.03 | 80.80 | 56.52
RZ899078: siRNA sequence with the sense strand with the NM202 (C22) conjugation at Position 6; SEQ ID NO: 20 / 24 (sense UUUUANUCCUCACUCUAAA; antisense UUUAGAGUGAGGAUUAAAAUG; NM202 (C22) conjugate at sense position 6; modified_base 1..2 OTHER; 2'-methoxy and 5'-thiophosphate modified nucleotides; modified_base 3..5 OTHER; 2'-methoxy modified nucleotides; modified_base 6 OTHER; n is the synthetic nucleotide analog NM202 as described in the disclosure.; modified_base 7..10 OTHER; 2'-fluoro modified nucleotides; modified_base 11..19 OTHER; modified_base 1 OTHER; 2'-methoxy and 5'-thiovinylphosphonate modified nucleotide; modified_base 2 OTHER; 2'-fluoro and 5'-thiophosphate modified nucleotide; modified_base 6 OTHER;) | 30.24 | 52.15 | 71.42 | 67.27 | 55.23
